Test results as given in patent US9352050B2, “Processes for preparing peptide conjugates and linkers” (PFIZER INC., priority 2011, dated 2016).

Legend:
Type in all cases: physicochemical
[1] = Solubility and dissolution of peptide-linker conjugate and peptide in solvents and buffers
Description: The process for the formation of the drug substance 5 was originally described in U.S. Pat. No. 8,288,349 whose contents are hereby incorporated. The original process involved use of propylene glycol as the cosolvent in the conjugation process between peptide-linker 3 and the antibody h38C2. […] The more amorphous solid form is usually more soluble in different solvents and buffer solutions. […] During preparation of bioconjugate 5, it is desirable to have a conjugation mixture as a homogeneous solution at the beginning of the reaction in order to afford consistent reaction kinetics and more robust manufacturing process.
In the original process, propylene glycol was used as a cosolvent primarily to assist in the dispersion of the hydrophobic peptide-linker 3b in the aqueous histidine buffer solution at pH 6.5.

[2] = Degradation of peptide 3b in the conjugation mixture; details: higher temperatures (30-35° C.) and higher pH (about pH7.5)
Experimental: In order to investigate the impact of different conjugation reaction variables on the reaction rate, product quality and yield, a set of experiments were executed using design of experiments (DOE) approach. Three parameters were chosen for evaluation: pH of the conjugation mixture, temperature of the conjugation and the ratio of peptide to starting antibody. Other parameters such as composition of the buffer solution (20 mM histidine buffer), antibody concentration (16.7 mg/mL) and concentration of DMSO in solution (7%) were kept constant. The centre point for each parameter was pH6.5, 20° C. and a peptide:antibody ratio of 2.4:1. The low levels tested were pH5.5, 5° C. and a ratio of 1.8, and the high levels were pH7.5, 35° C. and a ratio of 3.
Several experiments whose variable values were at the center-point of all the parameter ranges were selected to provide information on possible non-linear effects. The protocol for these experiments was briefly as follows: Peptide 3b (25 mg) was placed in a 20 mL vial equipped with a magnetic stir bar. The solid was dissolved in DMSO (2.1 mL). Histidine buffer (20 mM, pH 6.5, 2.1 mL) was added to the solution. […] The reaction was monitored for completion by SEC and HIC chromatography methods. […] The in-situ yield of 5 and time of reaction completion (hours) were evaluated by HIC and SEC chromatographic methods. […]

[3] = Storage stability of activated esters of acid 6 at room temperature; details: solid, in contact with air
Description: This cyclic byproduct became the major constituent of the isolated solid after only a few days at RT. Since this side-reaction was envisioned to become even more problematic on scale due to the longer timelines for processing and isolation, a search for an alternative activating group for acid 6 was undertaken.

With `CSCC[C@H](NC(=O)[C@H](Cc1ccccc1)NC(=O)[C@H](CCC(N)=O)NC(=O)[C@H](CC(=O)O)NC(=O)[C@H](Cc1ccc(O)cc1)NC(=O)[C@H](CC(C)C)NC(=O)[C@@H](NC(=O)[C@H](CCCCNC(=O)COCC(=O)Nc1ccc(CCC(=O)N2CCC2=O)cc1)NC(=O)[C@H](CC(=O)O)NC(=O)[C@H](CCCCNC(C)=O)NC(=O)[C@H](CCC(=O)O)NC(=O)[C@H](CC(=O)O)NC(=O)[C@H](CC(C)C)NC(=O)[C@@H]1CCCN1C(=O)[C@H](CCC(N)=O)NC(=O)[C@H](Cc1ccc(O)cc1)NC(=O)[C@H](CCCCNC(C)=O)NC(=O)[C@H](CCC(N)=O)NC(C)=O)C(C)O)C(=O)N[C@@H](CC(C)C)C(=O)N[C@@H](CCC(N)=O)C(=O)N[C@@H](CCC(N)=O)C(=O)NCC(N)=O` (stereo partly drawn) [3b] the “Solubility in propylene glycol” value [1] was “very low solubility”, the “Solubility in solvents other than DMSO” value [1] was “limited solubility” and the solubility ([1]; Solubility in DMSO) was no less than 100 mg/mL. For the same compound, the “Degradation rate” value [2] was “occurs at a faster rate”.

With `CC(=O)NCCCC[C@H](N)C(=O)O` [compound 2] the “solubility” value ([1]; MeCN or MeOH) was “low solubility”.

With `O=C(COCC(=O)ON1C(=O)CCC1=O)Nc1ccc(CCC(=O)N2CCC2=O)cc1` [compound 8] the “Storage stability” value [3] was “increasing amounts of the second component were noticed after the solid had been set aside for only a few hours”.
